Entries after “also recorded” stand apart in the source; their conditions may differ.
Tests used:
panel of cell lines = assay: WST chemosensitivity assay (72 hours); format: cell-based; conditions: after 72 hours, any of the cell lines tested
LNCaP = assay: CAM xenograft tumor weight, LNCaP; format: in vivo, chicken embryo; conditions: extended Olaparib treatment, P<0.01
Description: The CAM assay was performed as described previously (Zijlstra, A., et al., Cancer research 62, 7083-7092 (2002)). Briefly, fertilized eggs were incubated in a rotary humidified incubator at 38° C. with for 10 days. After releasing the CAM by applying mild amount of low pressure to the hole over the air sac and cutting a square 1-cm^2 window encompassing a second hole near the allantoic vein, cultured human cells that had been pre-treated with siRNA as indicated were detached by trypsinization and re-suspended in complete medium prior to implantation of 2×10^6 cells adjacent to the mesenchyme in each egg. The windows were subsequently, sealed and the eggs were returned to a stationary incubator. Cells were then treated as indicated with 40 mg/kg body weight Olaparib which was administered on day 13, 15 and 17. Day 18 embryos were sacrificed. Tumors were then excised and weighed. […] After incubation of either the metastasis or intravasation assays, the extra-embryonic tumor and CAM, as well as the embryonic liver were harvested and analyzed for the presence of tumor cells by quantitative human alu-specific PCR. […] Quantification of human cells in the extracted DNA was done as described^14. Fluorogenic TaqMan qPCR probes were applied as above, and DNA copy numbers were quantified.

DU145 xenografts = assay: DU145 mouse xenograft model; format: in vivo, mice; conditions: DU145 (ETS negative), Olaparib
From the text: Olaparib was obtained from Axon Medchem (Groningen, The Netherlands).

[1] = tested on: MDA-PCa-2b-T (ETV1 positive); assay: Human prostate cancer tissue xenograft (primagraft) MDA-PCa-2b-T; format: in vivo, mice; conditions: 40 mg/kg Olaparib, P<0.01 (day 8, 12 and 16)
Description: Human prostate cancer specimens MDA-PCa 2b-T (ETV1 positive), MDA-PCa-133 (ERG positive) and MDA PCa 118b (ETS-negative) were obtained (Li, Z. G., et al. The Journal of clinical investigation 118, 2697-2710 (2008)). Each xenografted tumor tissue was aseptically harvested from the host mice. New recipient mice were anesthetized by injecting […] intraperitoneally for chemical restraint before tumor implantation. About 0.5 cm^3 size of the excised tumor tissue was directly implanted into subcutaneous pockets of 6- to 8-week-old male CB17 SCID mice (Charles River Laboratories) in a laminar flow sterile hood. Sub-cutaneous pocket was carefully closed by applying 1 or 2 wound clips. All mice were monitored for 24 hours after implantation procedure for any apparent physiologic disturbances or missing wound clips. Olaparib (40 mg/Kg body weight) treatment was started after 72 hours. […] Body weight was also monitored weekly during the course of the study.

[2] = tested on: PC3 cells expressing BRCA2 shRNA; assay: γ-H2A.X immunofluorescence, PC3 cells expressing BRCA2 shRNA; format: cell-based, human; conditions: BRCA2 depleted PC3 cells, Olaparib
Description: Cells were seeded at 25,000 cells/mL in 4-well chamber slide 24 hours prior to the addition of siRNA or drug as indicated. Merbarone (Sigma) was dissolved in DMSO and stored at 4° C. Cells were then washed once in PBS, fixed for 15 minutes in 100% methanol, washed in PBS, permeabilized for 5 minutes in PBS containing 0.2% Triton-X, washed twice in PBS, blocked for 30 minutes in PBS containing 0.5% donkey serum (Sigma, St. Louis, Mo.), held for 45 minutes in PBS containing 0.5% donkey serum and primary antibody: anti-γ-H2A.X mouse monoclonal (Millipore Cat #05-636), anti-γ-H2A.X rabbit polyclonal (Cell Signaling, Cat #9719, Danvers, Mass.), and anti-53BP1 rabbit polyclonal (Cell Signaling, Cat #4937, Danvers, Mass.) washed 3 times with PBS, held for 30 minutes in PBS containing 0.5% donkey serum and secondary antibody: Alexa Fluor 488-anti-Mouse (Invitrogen) or Alexa Fluor 594-anti-Rabbit (Invitrogen). Cells were then stained with DAPI for 5 minutes and slides were mounted 12 hours prior to analysis using Vectashield (Vector laboratories, Burlingame, Calif.). Images were taken using 100× oil lens on an Olympus Confocal microscope at the University of Michigan microscopy imaging lab.

BRCA2 shRNA PC3 cells = assay: Neutral COMET assay, BRCA2 shRNA PC3 cells; format: cell-based, human; conditions: P=0.14 and P=0.003, two-way ANOVA
Description: VCaP, PC3, PrEC or RWPE cells were seeded at 250,000 cells/mL in a 6-well plate 24 hours prior to treatment with siRNA, drug or vehicle control. After 48 hours, cells were trypsinized, harvest by centrifugation and re-suspend in PBS. Cell counts were then normalized to 1×10^5 cells/mL. Suspended cells (25 μL) were then mixed with 250 μL 1.0% ultrapure low melting point agarose (Invitrogen) made in 1× Tris-Borate buffer. The agarose-cell mixture was then dropped onto slides allowed to solidify at 4° C. in the dark for 20 minutes before immersion in COMET assay lysis solution (Trevigen, Gaithersburg, Md.) at 4° in the dark for 45 minutes. Excess buffer was then removed and slides were submerged in freshly prepared neutral solution (Tris Base 60.57 g, Sodium Acetate 204.12 g, dissolve in 450 ml of dH2O, adjust to pH=9.0 with glacial acetic acid) at room temperature in the dark for 40 minutes. Slides were then washed twice by immersing in 1×TBE buffer prior to neutral electrophoresis at 20 volts for 30 minutes. Slides were then fixed in 70% ethanol for 5 minutes. […] COMET tail moments were then assessed using COMETscore.v1.5 (AutoCOMET.com, Sumerduck, Va.) image processing software as described by the manufacturer with greater than 100 cells analyzed in triplicate experiments.

T-ALL cell lines = assay: T-ALL cell lines: neutral COMET assays and soft agar colony formation; format: cell-based; conditions: with or without 10 μM Olaparib for 48 hours (COMET); soft agar colony formation
Description: The effect of PARP1 inhibitors on T-ALL cell lines was assayed using Western blot analysis of several T-ALL cell lines comparing total ERG expression levels. In addition, neutral COMET assays were performed on a panel of T-ALL cell lines. RWPE was used as an ETS negative control and VCaP cells were used for comparison to an ETS positive model. Cells were treated with or without 10 μM Olaparib for 48 hours as indicated. Soft agar colony formation was performed on cells treated with or without Olaparib as indicated. All experiments were run in triplicate. Error bars are standard error of the mean.

[3] = Fong et al., N Engl J Med 361, 123-134 (2009); cited from earlier work
PC3-ERG xenografts = assay: PC3-ERG mouse xenograft model; conditions: P=0.007 for PARP inhibition
Description: Four weeks old male Balb C nu/nu mice were purchased from Charles River, Inc. (Charles River Laboratory, Wilmington, Mass.). VCaP (2×10^6 cells), PC3-luciferase-control (1×10^5 cells) or PC3-luciferase-ERG (1×10^5 cells) stable cells were resuspended in 100 μl of saline with 50% Matrigel (BD Biosciences, Becton Drive, NJ) and were implanted subcutaneously into the left flank region of the mice. Mice were anesthetized using a cocktail of xylazine (80-120 mg/kg, IP) and ketamine (10 mg/kg, IP) for chemical restraint before tumor implantation. All tumors were staged for three week before starting the drug treatment. After week 3 for VCaP cells or after 48 hours for PC3 cells, mice (10 per treatment group) were treated with NU7026 (25 mg/kg, IP), Olaparib (40 mg/kg, IP) daily five times a week. Olaparib was obtained from Axon Medchem (Groningen, The Netherlands). Growth in tumor volume was recorded weekly by using digital calipers and tumor volumes were calculated using the formula (π/6) (L×W2), where L=length of tumor and W=width. Loss of body weight during the course of the study was also monitored weekly.

With `O=C(c1cc(Cc2n[nH]c(=O)c3ccccc23)ccc1F)N1CCN(C(=O)C2CC2)CC1` [Olaparib, 4-[3-(4-Cyclopropanecarbonylpiperazine-1-carbonyl)-4-fluorobenzyl]-2H-phthalazin-1-one] the “in vitro cell proliferation rate” value (panel of cell lines) was “did not have an effect”, the “tumor size (weight) on CAM” value (LNCaP) was “significantly smaller” and the xenograft growth (DU145 xenografts) was “not responsive; also recorded: did not inhibit the growth”. For the same compound, the primagraft growth [1] was “inhibited the growth”, the γ-H2A.X staining [2] was “similarly dramatic increase in γ-H2A.X staining” and the “COMET tail moments versus Olaparib treated ETS overexpressing cells” value (BRCA2 shRNA PC3 cells) was “slightly larger tail moments”. For the same compound, the “sensitivity of T-ALL cell lines” value (T-ALL cell lines) was “sensitive to PARP1 inhibition; also recorded: sensitive to PARP inhibition”, the “tolerability in cancer patients” value [3] was “well tolerated in cancer patients with a minimal side effect profile; also recorded: well tolerated at doses capable of inhibiting PARP activity” and the xenograft growth (PC3-ERG xenografts) was “significantly sensitize the PC3 cells to PARP inhibition”.

Source: US20120035244A1, “PARP1 TARGETED THERAPY” (THE REGENTS OF THE UNIVERSITY OF MICHIGAN, priority 2010, published 2012)
